Laboratory results taken from patent publication US20090291945A1, “CYSTEINE PROTEASE INHIBITORS” (Teijin Pharma Limited, priority 2008, published 2009).

What was measured:
cathepsin K = biological target: T1, cathepsin K (Homo sapiens, UniProt P43235); experiment: Cathepsin K inhibitory activity (fluorescent substrate Z-Leu-Arg-MCA); type: biochemical; settings: enzyme expressed in HEK293T, 15 min preincubation, 30 min reaction at room temperature, pH 5.5; for IC50: read-out: Activity Intensity (cathepsin K inhibitory activity, pIC50 class) (converted)
T1 construct: the active enzyme was obtained as the enzyme fraction by using detergent containing lysis buffer; made in house; host or cells: HEK293T (GenHunter Corporation), transient expression; detergent lysate used as enzyme fraction
T1 sequence (P43235 115-329): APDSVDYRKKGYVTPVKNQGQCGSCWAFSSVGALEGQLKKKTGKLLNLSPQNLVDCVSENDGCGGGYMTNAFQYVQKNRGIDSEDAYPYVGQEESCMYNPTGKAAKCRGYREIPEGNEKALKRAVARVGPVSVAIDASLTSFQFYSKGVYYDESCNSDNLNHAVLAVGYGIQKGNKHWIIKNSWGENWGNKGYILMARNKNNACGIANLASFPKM
Method in brief: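 Enzyme was HEK293T-expressed cathepsin K in pH 5.5 acetate buffer with 2 mM DTT, preincubated 15 min at room temperature with compound. Reaction started with Z-Leu-Arg-MCA (solution prepared at 10 μM), run 30 min, and AMC fluorescence read at 355/460 nm. IC50 taken from the curve of % inhibition vs DMSO.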

[1] = Metabolic stability test using human liver microsome; type: in vitro ADME; settings: NADPH, 37° C., 25 minutes versus 0 minute, LC/MS peak area
Method: For the compounds synthesized according to the method of the above Examples and the compounds of formula (B) (the compounds disclosed in WO2002/070517), the metabolic stability test using the human liver microsome was performed and the residual rate of each compound was calculated.
To a human liver microsome solution (950 μL) was added a test compound solution (10 μL, 100 μM, acetonitrile solution) on an ice bath and the solution was divided into two equal parts, solution A and solution B. Note that the composition of the human liver microsome solution was as follows.
20 mg/mL protein human liver microsome (Xenotech LLC Lenexa, US): 10 μL 500 mM potassium phosphate buffer solution (pH 7.4): 200 μL 10 mM EDTA solution: 100 μL 60 mM MgCl2 solution: 50 μL 100 mM glucose-6-phosphate solution: 50 μL 100 I.U./mL glucose-6-phosphate dehydrogenase solution: 10 μL purified water: 530 μL
To the solution A (480 μL) was added acetonitrile (500 μL) on an ice bath, and then 25 mM NADPH solution (20 μL) was added. After vortexing, the mixture was centrifuged (3,000 rpm) at 4° C. for 10 minutes, and the supernatant was taken as the sample at the reaction time of 0 minute.
To the solution B (480 μL) was added 25 mM NADPH solution (20 μL). The mixture was incubated at 37° C. for 25 minutes. The reaction was quenched with acetonitrile (500 μL) and vortexing. The mixture was centrifuged (3,000 rpm) at 4° C. for 10 minutes, and the supernatant was taken as the sample at the reaction time of 25 minutes.
LC/MS measurement was performed for the samples at the reaction time of 0 minute and the reaction time of 25 minutes. Based on the peak area of the target molecular weight in the MS measurement, the residual rate of the sample at the reaction time of 25 minutes to the sample at the reaction time of 0 minute was calculated in percentage.

| Compound | IC50 (cathepsin K) [nM] | Residual Rate at 25 minutes (%) [1] [%] | Activity Intensity (cathepsin K inhibitory activity, pIC50 class) (cathepsin K) |
| --- | --- | --- | --- |
| CN(C)C[C@@H](CNc1ccc(N2CCOCC2)cc1)NC(=O)[C@H](CC(C)(C)F)N[C@@H](c1ccccc1)C(F)(F)F [Compound 107] | ≤ 3.16 | 50 | – |
| CC[C@@H](CNc1ccc(OCC(=O)O)cc1OC)NC(=O)[C@H](CC(C)(C)F)N[C@@H](c1ccccc1)C(F)(F)F [Compound 117, 2-{4-[((2S)-2-{(2S)-2-[((1S)-2,2,2-trifluoro-1-phenylethyl)amino]-4-fluoro-4-methylpentanoylamino}butyl)amino]-3-methoxyphenoxy}acetic acid] | ≤ 3.16 | 111 | – |
| CC[C@@H](CNc1ccc(OC2(C(=O)O)CC2)cc1OC)NC(=O)[C@H](CC(C)(C)F)N[C@@H](c1ccccc1)C(F)(F)F [Compound 118] | ≤ 3.16 | 76 | – |
| CC[C@@H](CNc1ccc(OCC(=O)O)cc1OC)NC(=O)[C@H](CC(C)C)N[C@@H](c1ccc(OC)nc1)C(F)(F)F [Compound 120] | ≤ 3.16 | 108 | – |
| CC[C@@H](CNc1ccc(OCC(=O)O)cc1OC)NC(=O)[C@H](CC(C)C)N[C@@H](c1cccnc1)C(F)(F)F [Compound 121] | 3.16 to 31.6 | 105 | – |
| CC[C@@H](CNc1ccc(OC2(C(=O)O)CC2)cc1OC)NC(=O)[C@H](CC(C)C)N[C@@H](Cc1ccccc1)C(F)(F)F [Compound 124] | 3.16 to 31.6 | 87 | – |
| CC(C)C[C@H](N[C@@H](c1ccccc1)C(F)(F)F)C(=O)N[C@@H](CCCCN)CNc1ccc(N2CCOCC2)cc1 [Compound 126] | ≤ 3.16 | 90 | – |
| CC(C)C[C@H](N[C@@H](c1ccccc1)C(F)(F)F)C(=O)N[C@@H](CCCN)CNc1ccc(N2CCOCC2)cc1 [Compound 127] | 3.16 to 31.6 | 87 | – |
| CC(C)C[C@H](N[C@@H](c1ccccc1)C(F)(F)F)C(=O)N[C@@H](CCN)CNc1ccc(N2CCOCC2)cc1 [Compound 129] | 3.16 to 31.6 | 75 | – |
| CC(C)(F)C[C@H](N[C@@H](c1ccccc1)C(F)(F)F)C(=O)N[C@@H](CCN)CNc1ccc(N2CCOCC2)cc1 [Compound 130] | 3.16 to 31.6 | 85 | – |
| CC[C@@H](CNc1ccc(OC(C)(C)C(=O)O)cc1OC)NC(=O)[C@H](CC(C)(C)F)N[C@@H](c1ccccc1)C(F)(F)F [Compound 131, 2-{4-[((2S)-2-{(2S)-2-[((1S)-2,2,2-trifluoro-1-phenylethyl)amino]-4-fluoro-4-methylpentanoylamino}butyl)amino]-3-methoxyphenoxy}-2-methylpropanoic acid] | 3.16 to 31.6 | 123 | – |
| CC[C@@H](CNc1ccc(OC(C)C(=O)O)cc1OC)NC(=O)[C@H](CC(C)(C)F)N[C@@H](c1ccccc1)C(F)(F)F (stereo partly drawn) [Compound 140, 2-{4-[((2S)-2-{(2S)-2-[((1S)-2,2,2-trifluoro-1-phenylethyl)amino]-4-fluoro-4-methylpentanoylamino}butyl)amino]-3-methoxyphenoxy}propanoic acid] | 3.16 to 31.6 | 101 | – |
| CC[C@@H](CNc1ccc(OC(F)(F)C(=O)O)cc1OC)NC(=O)[C@H](CC(C)(C)F)N[C@@H](c1ccccc1)C(F)(F)F [Compound 141] | 31.6 to 10000 | 70 | – |
| CC[C@@H](CNc1ccc(OC(C)C(=O)O)cc1OC)NC(=O)[C@H](CC(C)(C)F)N[C@@H](c1ccccc1)C(F)(F)F (stereo partly shown) [Compound 142] | – | 96 | ++ (7.5≦pIC50<8.5: ++) |
| CC[C@@H](CNc1ccc(N2CCC(C(=O)O)CC2)cc1)NC(=O)[C@H](CC(C)C)N[C@@H](c1ccccc1)C(F)(F)F [Compound 145] | ≤ 3.16 | 88 | – |
| CC[C@@H](CNc1ccc(N2CCC(C(=O)O)CC2)cc1)NC(=O)[C@H](CC(C)(C)F)N[C@@H](c1ccccc1)C(F)(F)F [Compound 147] | ≤ 3.16 | 80 | – |
| CC[C@@H](CNc1ccc(N2CCC[C@H](C(=O)O)C2)cc1)NC(=O)[C@H](CC(C)C)N[C@@H](c1ccccc1)C(F)(F)F [Compound 148] | ≤ 3.16 | 85 | – |
| CC[C@@H](CNc1ccc(N2CCC[C@@H](C(=O)O)C2)cc1)NC(=O)[C@H](CC(C)C)N[C@@H](c1ccccc1)C(F)(F)F [Compound 149] | ≤ 3.16 | 87 | – |
| CC[C@@H](CNc1ccc(N2CCO[C@@H](C(=O)O)C2)cc1)NC(=O)[C@H](CC(C)C)N[C@@H](c1ccccc1)C(F)(F)F [Compound 150] | ≤ 3.16 | 96 | – |
| CC[C@@H](CNc1ccc(N2CCC[C@H](C(=O)O)C2)cc1)NC(=O)[C@H](CC(C)(C)F)N[C@@H](c1ccccc1)C(F)(F)F [Compound 151] | ≤ 3.16 | 90 | – |
| CC[C@@H](CNc1ccc(N2CCC[C@@H](C(=O)O)C2)cc1)NC(=O)[C@H](CC(C)(C)F)N[C@@H](c1ccccc1)C(F)(F)F [Compound 152] | ≤ 3.16 | 88 | – |
| CC[C@@H](CNc1ccc(N2CCC(C(=O)O)CC2)cc1)NC(=O)[C@H](CC(C)C)N[C@@H](Cc1ccccc1)C(F)(F)F [Compound 153] | 3.16 to 31.6 | 53 | – |
| CC[C@@H](CNc1ccc(N2CCC(C)(C(=O)O)CC2)cc1)NC(=O)[C@H](CC(C)C)N[C@@H](c1ccccc1)C(F)(F)F [Compound 154] | ≤ 3.16 | 74 | – |
| CC[C@@H](CNc1ccc(OCCCC(=O)O)cc1OC)NC(=O)[C@H](CC(C)C)N[C@@H](c1ccccc1)C(F)(F)F [Compound 155] | ≤ 3.16 | 31 | – |
| CC(C)C[C@H](N[C@@H](c1ccccc1)C(F)(F)F)C(=O)N[C@@H](CCCC(=O)O)CNc1ccc(N2CCOCC2)cc1 [Compound 159, (5S)-5-{(2S)-2-[((1S)-2,2,2-trifluoro-1-phenylethyl)amino]-4-methylpentanoylamino}-6-[(4-morpholin-4-ylphenyl)amino]hexanoic acid] | ≤ 3.16 | 100 | – |
| CC(C)(F)C[C@H](N[C@@H](c1ccccc1)C(F)(F)F)C(=O)N[C@@H](CCCC(=O)O)CNc1ccc(N2CCOCC2)cc1 [Compound 160, (5S)-5-{(2S)-2-[((1S)-2,2,2-trifluoro-1-phenylethyl)amino]-4-fluoro-4-methylpentanoylamino}-6-[(4-morpholin-4-ylphenyl)amino]hexanoic acid] | ≤ 3.16 | 90 | – |
